Data: patent US10787444B2, “Compounds for the modulation of myc activity” (Syros Pharmaceuticals, Inc., priority 2015, dated 2020)

What was measured:
[1] = target: T1, c-Myc/Max/Ebox DNA (Homo sapiens, UniProt P01106); assay: c-Myc/Max/Ebox DNA AlphaScreen Assay; assay type: binding; details: Table 2, compounds of FIG. 1; calculated IC50 class
T1 construct: his6 (cleaved yes)
Method in brief: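 Compounds were preincubated with free c-Myc (20 nM), biotinylated single-Ebox DNA (10 nM) and Ni acceptor beads before his6-Max (5 nM) and streptavidin donor beads were added. Buffer was 50 mM HEPES pH 8.0, 150 mM NaCl, BSA, Tween20, glycogen and DTT, with DMSO ≤2%. After 2 h incubation, AlphaScreen signal was read at 680 nm excitation and 520–620 nm emission.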

[2] = test system: human small lung cancer cell line H2171; assay: Cell Viability Assay (ATPlite); assay type: cell-based; details: Homo sapiens, NCI-H2171, 72 h, Table 2, compounds of FIG. 1; H2171 cells, three days, ATPlite; calculated IC50 class; read-out: H2171 Activity
Method in brief: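 H2171 cells were plated at 20,000 cells/mL and dosed immediately by pin transfer with a 10-point dose series in DMSO. After three days at 37° C, ATPlite luminescence served as the viability readout.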

T1 sequence (P01106 whole entry): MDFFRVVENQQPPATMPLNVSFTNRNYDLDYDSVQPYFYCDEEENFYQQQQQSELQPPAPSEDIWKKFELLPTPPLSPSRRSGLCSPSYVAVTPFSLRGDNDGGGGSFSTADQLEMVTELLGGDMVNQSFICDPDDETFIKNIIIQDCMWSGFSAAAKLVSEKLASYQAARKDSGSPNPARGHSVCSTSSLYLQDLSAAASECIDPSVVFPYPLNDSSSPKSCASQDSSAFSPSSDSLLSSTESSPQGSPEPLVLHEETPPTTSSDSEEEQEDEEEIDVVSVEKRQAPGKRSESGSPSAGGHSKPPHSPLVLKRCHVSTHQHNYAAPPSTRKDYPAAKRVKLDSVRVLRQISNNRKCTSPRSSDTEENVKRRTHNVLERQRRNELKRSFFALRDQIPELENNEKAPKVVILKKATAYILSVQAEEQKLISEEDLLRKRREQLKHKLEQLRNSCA

Structure (SMILES) | IC50 [1] [µM] | IC50 [2] [µM]
COCCNCCC(=O)Nc1sc2c(c1-c1nc3cc(C4=CCNCC4)ccc3s1)CCNC2 [compound 497] | < 0.3 | < 0.3
COCCNCCC(=O)Nc1sc2c(c1-c1nc3ccc(-c4ccc(N5CCNCC5)nc4)cc3s1)CCNC2 [compound 504] | < 0.3 | < 0.3
CC(C)NCCC(=O)Nc1sc2c(c1-c1nc3c(Br)cccc3s1)CCNC2 [compound 516] | < 0.3 | < 0.3
CC(C)NCCC(=O)Nc1sc2c(c1-c1nc3c(S(C)(=O)=O)cccc3s1)CCNC2 [compound 553] | < 0.3 | < 0.3
COCCNCCC(=O)Nc1sc2c(c1-c1nc3c(C#N)cccc3s1)CCNC2 [compound 568] | < 0.3 | < 0.3
COCCNCCC(=O)Nc1sc2c(c1-c1nc3c(CO)cccc3s1)CCNC2 [compound 598] | < 0.3 | < 0.3
CCc1cccc2nc(-c3c(NC(=O)CCNCCOC)sc4c3CCNC4)sc12 [compound 599] | < 0.3 | < 0.3
COCCNCCC(=O)Nc1sc2c(c1-c1nc3c(NC4COC4)cccc3s1)CCNC2 [compound 600] | < 0.3 | < 0.3
COCCNCCC(=O)Nc1sc2c(c1-c1nc3c(C(F)(F)F)cccc3s1)CCNC2 [compound 611] | < 0.3 | < 0.3

The remaining lines, values ahead:

IC50 [1] [µM] | IC50 [2] [µM] | Structure (SMILES)
< 0.3 | < 0.3 | CC(C)NCCC(=O)Nc1sc2c(c1-c1nc3c(-c4cnn(C)c4)cccc3s1)CCNC2 [compound 515]
< 0.3 | < 0.3 | CC(C)NCCC(=O)Nc1sc2c(c1-c1nc3c(-c4cccnc4)cccc3s1)CCNC2 [compound 534]
< 0.3 | < 0.3 | CC(C)NCCC(=O)Nc1sc2c(c1-c1nc3c(-c4ccncc4)cccc3s1)CCNC2 [compound 535]
< 0.3 | < 0.3 | COCCNCCC(=O)Nc1sc2c(c1-c1nc3c(Br)cccc3s1)CCNC2 [compound 559]
< 0.3 | < 0.3 | CC(C)NCCC(=O)Nc1sc2c(c1-c1nc3cc(NS(C)(=O)=O)ccc3s1)CCNC2 [compound 581]
